Each structure is given as a SMILES string. Calls of active or inactive are those of the source. The calls are words filed in the database; no cut-off is given here. Bounds are passed on as bounds.

One data set relates to helminth. Nature of the data set: Compound was tested for antihelminthic activity; No activity. It is filed as functional.
Data set [1] in a line: Lethal dose in dog was determined. The following applies: in vivo. The data set is classed as toxicity, organism-based, Canis lupus familiaris.
The nature of data set [2]: Lethal dose in mice was determined. It is filed as toxicity, organism-based. Conditions: mouse, in vivo.

For the molecule `CN1C(=O)[C@]23CC4C1(CN2CC[C@@]3(C)O)CC1(C(=O)Nc2c1ccc1c2OC=CC(C)(C)O1)C4(C)C` (stereo partly drawn), the outcome in the data set on helminth was inactive.
A word on the LD50: it is the dose expected to kill half of the subjects tested. Higher therefore signals a less toxic substance. With `CN1C(=O)[C@]23C[C@@H]4C(C)(C)[C@@]5(C[C@@]41CN2CC[C@@]3(C)O)C(=O)Nc1c5ccc2c1OC=CC(C)(C)O2` [Paraherquamide A], the LD50 in data set [1] was 0.5 mg/kg; in data set [2] it was below 15 mg/kg.
